The data set is described as follows: Protective effect on dexamethasone-induced myotube cell damage (MTT assay). It is filed as cell-based. Particulars: mouse, C2C12 cells differentiated into myotubes, 5 μM dexamethasone alone, read-out: decrease of cell viability compared to the control group not treated with dexamethasone. On the technique in general: Tetrazolium assays rely on reduction of a dye to a coloured formazan, in cell work by metabolically active cells.

Description: C2C12 cells, a myoblast derived from mouse skeletal muscle, were purchased from American Type Culture Collection (ATCC) and used. C2C12 cells were cultured in a 37° C.-wet CO2 incubator (5% CO2/95% air) using a cell culture medium in which 10% fetal bovine serum (FBS), 100 units/mL penicillin, and 100 μg/mL streptomycin were added to Dulbecco's Modified Eagle Medium (DMEM). When the cells were 80% full, the cell monolayer was washed with phosphate buffer saline (PBS, pH 7.4), trypsin-2.65 mM EDTA was added thereto, and the cells were detached and subcultured, and the medium was exchanged every 2 days. In order to induce differentiation into myotubes of C2C12 cells, the cells were cultured by exchange with a myocyte differentiation culture medium in which 2% horse serum (HS) was added to DMEM medium, and the myocyte differentiation culture medium was exchanged every 2 days.
C2C12 cells were seeded in 24-well plate at 5×10^4 cells/well and cultured for 24 hours. Thereafter, in order to induce differentiation into myotubes of C2C12 cells, the cell culture medium was exchanged with the myocyte differentiation culture medium to induce differentiation for 4 days. […] After the cells were cultured for 24 hours, MTT assay was performed in the same manner as described above to measure the cell viability.

Consider `C[C@@H]1C[C@H]2[C@@H]3CCC4=CC(=O)C=C[C@]4(C)[C@@]3(F)[C@@H](O)C[C@]2(C)[C@@]1(O)C(=O)CO` [dexamethasone], for which the cytotoxicity at 24 h, 5 μM was ~10%.

The values are drawn from patent US20260174814A1 (DR. OREGONIN INC., priority 2023, published 2026).
